How the values were obtained:
[1] = system: human adipose-derived stem cells (hADSCs); assay: neurogenesis / neuronal differentiation of hADSCs judged by neuronal morphology under phase contrast microscopy; format: cell-based
Method: hADSCs were purchased from Invitrogen, also known as Life Technologies, of Carlsbad, Calif., U.S.A., and were cultured as near confluent monolayers in 100 mm culture plates within a maintenance media consisting of Complete MesenPro RS medium with growth supplement and L-glutamine obtained from Invitrogen®. The process of culturing, passage, and seeding the hADSCs is described below.
The subculture of hADSCs was performed when cell culture reached confluence. To passage hADSCs, the following procedure is used: i) aspirate the Complete MesenPRO RS medium from the cells; ii) rinse the surface area of the cell layer with Dulbecco's phosphate buffered saline (DBPS) buffer by adding the DPBS to the side of the vessel opposite the attached cell layer and rocking the vessel back and forth several times; iii) remove the DPBS by aspiration and discard; iv) detach the cells by adding a sufficient volume of pre-warmed trypsin-EDTA solution without phenol red to cover the cell layer; v) incubate at 37° C. for approximately 7 minutes; vi) observe the cells under a microscope to determine if additional incubation is needed; vii) add 3 mL of the maintenance media to the plate, mix the cell suspension, add the suspension to a 15 mL centrifuge tube and centrifuge at 210 g for 5 minutes; viii) determine the total number of cells and percent viability using a hemacytometer; ix) add Complete MesenPRO RS medium to each vessel so that the final culture volume is 0.2 mL-0.5 mL per cm^2; x) seed the cells by adding the appropriate volume of cells to each vessel and incubate at 37° C., 5% CO2 and 90% humidity; and xi) three or four days after seeding, completely remove the medium and replace with an equal volume of Complete MesenPRO RS medium.
Before seeding the passaged hADSCs on fresh culture plates, the surfaces of the culture ware are washed with sterile DPBS solution three times, followed by multiple rinses with sterile water. The first layer of coating is poly-L-ornithine. The coating is prepared by adding about 15 to about 20 μg/mL of poly-L-ornithine and incubating at 37° C. for one hour. The plate is washed three times with DPBS, 15 minutes per wash. The second layer of coating is bovine plasma fibronectin. The fibronectin is diluted in DPBS from stock to 1:1000 and 500 μL is added to each well. The plate is left at room temperature for one hour. One final wash with 500 μL per well of DPBS is performed and the plate is used immediately.
The cells were then subjected to removal and reseeded at a density of 2×10^4 cells/ml (1×10^4 cells/well) onto 24-well culture plates that contained a poly-L-ornithine and bovine plasma fibronectin coating.
Three days after seeding and priming; the culture medium was changed into neuronal differentiation medium. The culture plates were removed from the incubator and all procedures were conducted in a laminar flow hood. The culture medium was completely removed from each well. The hADSCs were then washed with sterile DPBS solution in an amount of about 1 ml per well, to remove excess culture medium. The DPBS solution was removed and replaced with neuronal differentiation medium. The formulation of the neuronal differentiation medium is such that neurogenesis would be attributed to the nutrient and not to the medium. The neuronal differentiation medium used was Neurobasal™ Medium, available from Invitrogen®, which comprises the following ingredients listed below in Table 1.
PE was added to individual wells at various concentrations in the serum-free medium. Pre-warmed serum-free medium contains Neural Basal medium with L-glutamine, 20 ng/mL of bFGF, 20 ng/mL of EGF and N2 supplement.
[…] PE in varying concentrations was tested individually and compared to the positive control, DHA, and the negative control (no treatment) under phase contrast microscopy at 24 hours, 48 hours and 96 hours. The experiments were repeated in triplicate. […]

[2] = system: human neuronal stem cells (hNSCs); assay: neurogenesis of GFP-expressing hNSCs judged by morphological changes under inverted fluorescent microscopy; format: cell-based
Method: Briefly, hNSCs were purchased from Millipore, Bellerica, Mass., U.S.A., with genetic modification to constitutively express green fluorescent protein (“GFP”). The hNSCs were cultured on laminin coated plates as recommended by the manufacturer. Both laminin and DEME/F12 were obtained from Millipore. Laminin was diluted with DMEM/F12 to 20 μg/mL. 10 ml of diluted laminin solution was added to 10 cm tissue culture dish. Then the culture dish was incubated in a 37° C., 5% CO2 incubator overnight. Just before use, the laminin solution was aspirated and rinsed once with sterile DPBS solution. hNSCs were cultured in the ReNcell NSC maintenance medium (Millipore) supplied with 20 ng/mL bFGF and 20 ng/mL EGF in a 37° C., 5% CO2 incubator. Medium was exchanged with fresh medium containing bFGF and EGF every other day thereafter.
After hNSCs reach 80% confluence, hNSCs were ready for the differentiation experiment. Before seeding, a 96-well plate was freshly coated with 20 μg/mL laminin solution followed by a brief DPBS rinse as described above. Culture medium was removed carefully and hNSCs were dissociated within 3 ml Accutase (Millipore) in a 37° C., 5% CO2 incubator for 3 minutes. Then 5 ml of ReNcell NSC maintenance medium (Millipore) supplied with 20 ng/mL bFGF and 20 ng/mL EGF were added. The cell suspension was then transferred a sterile 15 ml conical tube and the cells were pelleted by the centrifugation at 300×g for 5 minutes. Supernatant was removed. 2 ml medium was then applied to the tube and hNSCs was resuspended thoroughly. The hNSCs were seeded on a 96-well plate at a density of 1×10^4 cell/ml (1000 cells/well, 100 μl/well).
After attaching to the culture surface, the culture medium was switched to serum-free differentiation medium in the presence of CDP-choline, or DHA, or no treatment. The serum-free differentiation medium was prepared freshly before the switching including 40 ml DMEM/F12 (Millipore), 400 μL-Glutamine at a concentration of 200 mM (Life Technologies, Carlsbad, Calif.), 400 μl B27 solution (Life Technologies, Carlsbad, Calif.), and 40 μl Heperin (Sigma-Aldrich, St. Louis, […].) solution at a concentration of 10 mg/mL.
The entire 96-well plate was placed under the Leica DMI4000B fluorescent microscopy, and images were taken with GFP filter under a microscope with UV light source.

[3] = CDP-choline of 404 (so in the source), after 72 hours

For `C[N+](C)(C)CCOP(=O)(O)OP(=O)([O-])OC[C@H]1O[C@@H](n2ccc(N)nc2=O)[C@H](O)[C@@H]1O` [CDP-choline, cytidine diphosphate-choline], the “effect to enhance neurogenesis (neurite outgrowth, morphological changes)” value ([1]; 5 μM, FIG. 4C) was “demonstrated an effect to enhance neurogenesis”, the “length of neurite outgrowth” value [2, 3] was “comparable to DHA at 20 μM” and the “neurogenesis compared to no treatment” value [2, 3] was “dramatically promoted neurogenesis”.
With `CCCCCCCCCCCCC/C=C/[C@@H](O)[C@@H](CO)NC(=O)CCCCCCC` [N-octanoyl-D-threo-sphingosine] the neurogenesis ([2]; 10 μM, FIG. 5E) was “dramatically promoted neurogenesis”.
In the case of `CCCCCCCCCCCCC/C=C/[C@@H](O)[C@H](CO)NC(=O)C(O)CCCCCCCCCC` (stereo partly drawn) [N—(R,S)-alpha-Hydroxydodecanoyl-D-erythrosphingosine], the early neurogenesis ([1]; 40 μM, 24 hours after treating, FIG. 5B) is reported as “Early neurogenesis was also, observed”, the “effects to promote neurogenesis compared with DHA” value ([1]; tested at 20 and 40 μM vs DHA 10 μM, 24 hours) is reported as “moderate effects to promote neurogenesis” and the “neuronal changes in terms of morphology” value ([1]; tested at 20 and 40 μM, 24 hours) is reported as “obvious neuronal changes in terms of morphology”.
For `O=c1ccn([C@@H]2O[C@H](CO)[C@@H](O)[C@H]2O)c(=O)[nH]1` [uridine], the early neurogenesis ([1]; 20 μM, three hours after switching to neural differentiation medium, FIG. 6B) was “Early neurogenesis was observed”, the “duration of neuronal morphological changes” value ([1]; 0.5 mM) was “continued up to the 48-hour time course of the culture” and the “effect to enhance early neurogenesis” value ([1]; 0.5 mM) was “demonstrated the strongest effect to enhance early neurogenesis”. The “length of neurite outgrowth” value ([2]; 20 μM) was “good effects of neurogenesis” and the neurogenesis ([2]; 20 μM, FIG. 6C) was “dramatically promoted neurogenesis”.
With lactosylceramide the neurogenesis action ([1]; 10 μM, FIG. 5D) was “exhibit neurogenesis action”.
With phosphatidylethanolamine [PE] the “effect to enhance neurogenesis (neuronal morphology)” value ([1]; 20 μM, among 10, 20 and 40 μM tested, FIGS. 2C, 2D) was “demonstrated the strongest effect to enhance neurogenesis”.
In the case of sphingomyelin, the neural differentiation ([1]; 40 μM) is reported as “enhanced neural differentiation of hADSCs” and the “extensions compared to negative control” value ([1]; even at low concentrations (10-40 μM tested)) is reported as “longer than negative control and much more numerous”.

— patent publication US20140199265A1, “NUTRITIONAL COMPOSITIONS CONTAINING A NEUROLOGIC COMPONENT AND USES THEREOF” (MEAD JOHNSON NUTRITION COMPANY, priority 2013, published 2014)
